Activity calls are given as the source filed them. The calls are words filed in the database; no cut-off is given here.
Tests used:
[1] = target: T1, Histone deacetylase 8 (Homo sapiens) (UniProt Q9BY41); assay: Inhibition of HDAC8 in human Jurkat T cells assessed as increase in H3K27 acetylation at 10 uM after 6 hrs by Western blot analysis; format: cell-based
T1 sequence (whole entry): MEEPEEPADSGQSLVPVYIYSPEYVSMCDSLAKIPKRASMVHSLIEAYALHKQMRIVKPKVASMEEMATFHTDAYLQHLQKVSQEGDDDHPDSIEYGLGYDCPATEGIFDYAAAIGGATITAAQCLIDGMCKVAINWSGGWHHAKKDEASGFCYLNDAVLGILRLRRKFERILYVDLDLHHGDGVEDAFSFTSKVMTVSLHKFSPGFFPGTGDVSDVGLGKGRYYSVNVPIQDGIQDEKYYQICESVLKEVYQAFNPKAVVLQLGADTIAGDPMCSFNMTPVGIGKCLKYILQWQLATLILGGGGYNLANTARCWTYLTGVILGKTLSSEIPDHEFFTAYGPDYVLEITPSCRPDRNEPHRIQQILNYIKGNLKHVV

HEK293 = assay: Cytotoxicity against HEK293 cells assessed as reduction in cell viability at 50 uM after 24 hrs by alamar blue assay; format: toxicity, cell-based; conditions: human, hek293, 24 h
Histone deacetylase 1 [2] = target: T2, Histone deacetylase 1 (Homo sapiens, UniProt Q13547); assay: Inhibition of recombinant human HDAC1 using p53 (Ac-RHKK(Acetyl)-AMC) as substrate preincubated for 5 mins followed by substrate addition and measured after 90 mins by fluorescence based analysis
T2 sequence (Q13547 whole entry): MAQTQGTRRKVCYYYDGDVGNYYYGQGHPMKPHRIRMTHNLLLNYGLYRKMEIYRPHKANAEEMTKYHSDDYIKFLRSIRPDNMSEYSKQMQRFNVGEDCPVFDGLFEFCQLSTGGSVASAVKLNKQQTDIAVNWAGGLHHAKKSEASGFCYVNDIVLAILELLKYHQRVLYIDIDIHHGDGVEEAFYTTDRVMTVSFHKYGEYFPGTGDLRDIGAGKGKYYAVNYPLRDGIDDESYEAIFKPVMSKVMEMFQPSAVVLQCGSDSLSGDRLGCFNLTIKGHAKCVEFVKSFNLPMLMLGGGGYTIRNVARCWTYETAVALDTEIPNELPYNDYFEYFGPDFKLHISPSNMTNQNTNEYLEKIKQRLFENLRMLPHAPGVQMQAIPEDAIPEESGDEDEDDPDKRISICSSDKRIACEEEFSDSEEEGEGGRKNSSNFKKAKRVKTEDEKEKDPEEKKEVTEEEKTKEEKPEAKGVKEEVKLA

Histone deacetylase 8 = target: T3, Histone deacetylase 8 (Homo sapiens, UniProt Q9BY41); assay: Inhibition of recombinant human HDAC8 using (Abz-SRGK(thio-TFA)FFRR-NH2) as substrate preincubated for 5 mins followed by substrate addition by fluorescence based analysis
T3 sequence (Q9BY41 whole entry): T1 sequence (whole entry)

Histone deacetylase 2 [3] = target: T4, Histone deacetylase 2 (Homo sapiens, UniProt Q92769); assay: Inhibition of recombinant human HDAC2 using p53 (Ac-RHKK(Acetyl)-AMC) as substrate preincubated for 5 mins followed by substrate addition and measured after 30 mins by fluorescence based analysis
T4 sequence (Q92769 whole entry): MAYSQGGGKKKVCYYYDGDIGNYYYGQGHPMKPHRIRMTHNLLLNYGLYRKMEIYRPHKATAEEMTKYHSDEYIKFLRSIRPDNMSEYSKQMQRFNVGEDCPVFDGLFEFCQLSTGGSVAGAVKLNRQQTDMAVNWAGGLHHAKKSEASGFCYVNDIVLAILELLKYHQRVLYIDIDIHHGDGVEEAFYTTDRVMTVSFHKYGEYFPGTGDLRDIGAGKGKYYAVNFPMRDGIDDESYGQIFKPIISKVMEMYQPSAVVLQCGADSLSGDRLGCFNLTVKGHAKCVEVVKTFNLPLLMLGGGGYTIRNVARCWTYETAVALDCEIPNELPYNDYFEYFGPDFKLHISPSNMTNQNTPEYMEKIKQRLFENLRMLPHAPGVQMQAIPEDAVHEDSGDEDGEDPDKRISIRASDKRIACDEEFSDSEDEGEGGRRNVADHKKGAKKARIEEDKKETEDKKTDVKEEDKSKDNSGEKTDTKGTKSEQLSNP

Histone deacetylase 3 = Histone deacetylase 3 (Homo sapiens, UniProt O15379); assay: Inhibition of recombinant human HDAC3 using p53 (Ac-RHKK(Acetyl)-AMC) as substrate preincubated for 5 mins followed by substrate addition and measured after 30 mins by fluorescence based analysis
Chain of Histone deacetylase 3 (O15379 whole entry): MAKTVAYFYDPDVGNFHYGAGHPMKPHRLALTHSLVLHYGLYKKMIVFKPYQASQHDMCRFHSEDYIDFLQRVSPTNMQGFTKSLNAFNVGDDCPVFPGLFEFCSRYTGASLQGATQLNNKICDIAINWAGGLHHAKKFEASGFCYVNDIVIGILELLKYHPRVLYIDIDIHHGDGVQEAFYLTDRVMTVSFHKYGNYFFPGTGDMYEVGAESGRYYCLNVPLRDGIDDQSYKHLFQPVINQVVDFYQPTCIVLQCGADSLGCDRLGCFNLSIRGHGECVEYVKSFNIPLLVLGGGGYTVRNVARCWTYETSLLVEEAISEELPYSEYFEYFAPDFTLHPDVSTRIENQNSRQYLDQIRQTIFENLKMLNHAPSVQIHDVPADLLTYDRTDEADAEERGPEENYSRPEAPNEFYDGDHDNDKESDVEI

Histone deacetylase 1 [4] = target: T2, Histone deacetylase 1; assay: Inhibition of recombinant human HDAC1 at 1 uM using p53 (Ac-RHKK(Acetyl)-AMC) as substrate preincubated for 5 mins followed by substrate addition and measured after 90 mins by fluorescence based analysis relative to control; conditions: time 95.0 min
Histone deacetylase 2 [5] = target: T4, Histone deacetylase 2; assay: Inhibition of recombinant human HDAC2 at 1 uM using p53 (Ac-RHKK(Acetyl)-AMC) as substrate preincubated for 5 mins followed by substrate addition and measured after 30 mins by fluorescence based analysis relative to control; conditions: time 35.0 min
Histone deacetylase 1 [6] = target: T2, Histone deacetylase 1; assay: Inhibition of recombinant human HDAC1 at 10 uM using p53 (Ac-RHKK(Acetyl)-AMC) as substrate preincubated for 5 mins followed by substrate addition and measured after 90 mins by fluorescence based analysis relative to control; conditions: time 95.0 min
[7] = target: T1, Histone deacetylase 8 (Homo sapiens); assay: Inhibition of recombinant human HDAC8 at 1 uM using (Abz-SRGK(thio-TFA)FFRR-NH2) as substrate preincubated for 5 mins followed by substrate addition by fluorescence based analysis relative to control
[8] = target: T1, Histone deacetylase 8 (Homo sapiens); assay: Inhibition of recombinant human HDAC8 at 10 uM using (Abz-SRGK(thio-TFA)FFRR-NH2) as substrate preincubated for 5 mins followed by substrate addition by fluorescence based analysis relative to control
Histone deacetylase 2 [9] = target: T4, Histone deacetylase 2; assay: Inhibition of recombinant human HDAC2 at 10 uM using p53 (Ac-RHKK(Acetyl)-AMC) as substrate preincubated for 5 mins followed by substrate addition and measured after 30 mins by fluorescence based analysis relative to control; conditions: time 35.0 min
Histone deacetylase 11 = target: T5, Histone deacetylase 11 (Homo sapiens, UniProt Q96DB2); assay: Inhibition of recombinant human HDAC11 preincubated for 10 mins followed by substrate addition by fluorescence based analysis
T5 sequence (Q96DB2 whole entry): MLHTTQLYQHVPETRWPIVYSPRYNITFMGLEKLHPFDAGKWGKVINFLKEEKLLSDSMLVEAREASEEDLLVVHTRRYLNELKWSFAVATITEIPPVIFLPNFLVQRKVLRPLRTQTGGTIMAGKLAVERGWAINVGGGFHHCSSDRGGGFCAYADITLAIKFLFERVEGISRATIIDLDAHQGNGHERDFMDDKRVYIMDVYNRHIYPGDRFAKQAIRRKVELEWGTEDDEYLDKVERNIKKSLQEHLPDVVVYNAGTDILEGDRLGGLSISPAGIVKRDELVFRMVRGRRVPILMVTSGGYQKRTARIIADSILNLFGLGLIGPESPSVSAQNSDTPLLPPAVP

[10] = target: T6, Protein deacetylase HDAC6 (Homo sapiens, UniProt Q9UBN7); assay: Inhibition of recombinant human HDAC6 (unknown origin)
T6 sequence (Q9UBN7 whole entry): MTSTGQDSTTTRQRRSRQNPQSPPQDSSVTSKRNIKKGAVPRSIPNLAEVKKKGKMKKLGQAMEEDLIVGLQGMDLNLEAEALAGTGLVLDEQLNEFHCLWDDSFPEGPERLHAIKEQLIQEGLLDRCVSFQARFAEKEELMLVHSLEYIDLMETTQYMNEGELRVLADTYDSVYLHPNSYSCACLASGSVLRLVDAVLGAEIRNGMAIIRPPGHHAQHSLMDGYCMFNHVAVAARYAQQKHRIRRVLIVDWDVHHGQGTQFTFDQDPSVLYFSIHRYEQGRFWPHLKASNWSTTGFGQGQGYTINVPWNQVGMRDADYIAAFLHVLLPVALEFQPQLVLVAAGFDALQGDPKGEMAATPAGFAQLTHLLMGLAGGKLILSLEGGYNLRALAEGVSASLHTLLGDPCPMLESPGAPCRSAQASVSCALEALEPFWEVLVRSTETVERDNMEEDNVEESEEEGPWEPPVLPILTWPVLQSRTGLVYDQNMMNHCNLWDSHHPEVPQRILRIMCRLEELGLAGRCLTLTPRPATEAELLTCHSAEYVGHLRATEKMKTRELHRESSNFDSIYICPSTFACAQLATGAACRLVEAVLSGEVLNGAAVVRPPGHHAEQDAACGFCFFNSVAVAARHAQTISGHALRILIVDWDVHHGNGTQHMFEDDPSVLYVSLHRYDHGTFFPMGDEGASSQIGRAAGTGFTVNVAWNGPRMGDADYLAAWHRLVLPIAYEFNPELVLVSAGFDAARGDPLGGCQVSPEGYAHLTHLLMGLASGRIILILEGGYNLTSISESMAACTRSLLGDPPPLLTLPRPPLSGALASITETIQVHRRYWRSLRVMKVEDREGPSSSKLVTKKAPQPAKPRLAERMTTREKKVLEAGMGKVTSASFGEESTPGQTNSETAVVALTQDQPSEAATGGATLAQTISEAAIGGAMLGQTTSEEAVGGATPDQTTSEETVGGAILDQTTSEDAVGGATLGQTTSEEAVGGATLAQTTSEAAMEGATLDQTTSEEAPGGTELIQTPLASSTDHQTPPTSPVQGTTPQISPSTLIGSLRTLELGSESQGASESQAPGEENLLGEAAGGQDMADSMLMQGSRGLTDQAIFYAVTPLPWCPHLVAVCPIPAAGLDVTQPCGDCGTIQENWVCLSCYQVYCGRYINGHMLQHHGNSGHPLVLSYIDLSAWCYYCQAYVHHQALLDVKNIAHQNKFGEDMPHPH

Histone deacetylase 4 = Histone deacetylase 4 (Homo sapiens, UniProt P56524); assay: Inhibition of HDAC4 (unknown origin)
Chain of Histone deacetylase 4 (P56524 whole entry): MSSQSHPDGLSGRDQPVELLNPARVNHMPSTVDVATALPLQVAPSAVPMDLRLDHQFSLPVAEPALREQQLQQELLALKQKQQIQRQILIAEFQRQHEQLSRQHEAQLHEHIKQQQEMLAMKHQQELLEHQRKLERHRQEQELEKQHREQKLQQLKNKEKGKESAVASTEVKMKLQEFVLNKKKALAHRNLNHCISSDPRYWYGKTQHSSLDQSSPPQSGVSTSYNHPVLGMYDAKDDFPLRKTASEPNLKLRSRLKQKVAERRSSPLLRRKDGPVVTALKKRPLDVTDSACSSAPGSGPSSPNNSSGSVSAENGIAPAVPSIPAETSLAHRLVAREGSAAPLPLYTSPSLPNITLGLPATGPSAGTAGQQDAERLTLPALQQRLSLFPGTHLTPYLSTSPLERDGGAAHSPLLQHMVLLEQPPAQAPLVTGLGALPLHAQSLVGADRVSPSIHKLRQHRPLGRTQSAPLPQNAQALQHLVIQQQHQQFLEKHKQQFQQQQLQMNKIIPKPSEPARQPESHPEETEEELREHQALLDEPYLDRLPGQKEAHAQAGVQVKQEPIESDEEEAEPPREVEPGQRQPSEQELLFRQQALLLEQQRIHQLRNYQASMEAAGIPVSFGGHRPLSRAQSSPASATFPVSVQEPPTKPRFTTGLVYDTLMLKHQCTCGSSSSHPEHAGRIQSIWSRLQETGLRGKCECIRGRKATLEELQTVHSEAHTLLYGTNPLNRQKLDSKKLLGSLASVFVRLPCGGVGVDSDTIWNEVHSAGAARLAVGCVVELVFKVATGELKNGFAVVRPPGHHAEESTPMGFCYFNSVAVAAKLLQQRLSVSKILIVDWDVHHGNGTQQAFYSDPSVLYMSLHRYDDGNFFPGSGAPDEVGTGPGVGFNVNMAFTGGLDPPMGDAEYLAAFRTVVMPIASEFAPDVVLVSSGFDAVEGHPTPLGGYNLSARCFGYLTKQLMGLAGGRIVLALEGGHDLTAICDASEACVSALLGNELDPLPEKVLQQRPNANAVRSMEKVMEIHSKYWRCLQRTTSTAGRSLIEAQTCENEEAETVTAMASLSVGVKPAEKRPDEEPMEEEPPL

Row | Structure (SMILES) | inhibition [1] | Cell viability (HEK293) [%] | IC50 (Histone deacetylase 1 [2]) [nM] | IC50 (Histone deacetylase 8) [nM] | IC50 (Histone deacetylase 2 [3]) [nM] | IC50 (Histone deacetylase 3) [nM] | inhibition (Histone deacetylase 1 [4]) [%] | inhibition (Histone deacetylase 2 [5]) [%] | inhibition (Histone deacetylase 1 [6]) [%] | inhibition [7] [%] | inhibition [8] [%] | inhibition (Histone deacetylase 2 [9]) [%] | IC50 (Histone deacetylase 11) [nM] | IC50 [10] [µM] | IC50 (Histone deacetylase 4) [µM]
1 | CCCCCCNNC(=O)c1cnc(N2CCN(CCc3cn(C)c4ccccc34)CC2)nc1 | Active | 31.8 | 400 | 23 | 1200 | 1400 | – | – | – | – | – | – | – | – | –
2 | CCCNNC(=O)c1cnc(NCc2cccc3ccccc23)nc1 | – | 78.9 | – | – | – | 81 | 53 | 46 | 91 | 36 | 83 | 93 | – | – | –
3 | CCCCCCNNC(=O)c1cnc(NCc2ccccc2)nc1 | – | 88.4 | 560 | 16 | 3200 | 3000 | – | – | – | – | – | – | – | – | –
4 | CCCCNNC(=O)c1cnc(NCc2ccccc2)nc1 | – | 88.9 | – | – | – | 200 | 61 | 46 | 85 | 66 | 94 | 93 | – | – | –
5 | CCCNNC(=O)c1cnc(NCc2ccccc2)nc1 | – | 80.9 | 250 | 1000 | 700 | 43.2 | – | – | – | – | – | – | 2000 | > 20 | > 20
6 | CCCNNC(=O)c1cnc(NCc2cc(Cl)ccc2Cl)nc1 | – | 78.2 | – | – | – | 58 | 66 | – | 88 | 33 | 83 | – | – | – | –
7 | CCCNNC(=O)c1cnc(N2CCN(C)CC2)nc1 | – | 93.6 | 590 | 250 | 2400 | 120 | – | – | – | – | – | – | – | – | –
8 | CCCCCCNNC(=O)c1cnc(NCCc2ccccc2)nc1 | Active | 90.1 | 2200 | 28 | 12000 | 7200 | – | – | – | – | – | – | – | – | –
9 | CCCCNNC(=O)c1ccc(-c2ccc(CNC(C)=O)cc2)cc1 | – | 80.1 | 620 | 360 | 1100 | 350 | – | – | – | – | – | – | – | – | –
10 | CCCCCCNNC(=O)c1cccc(NCc2ccccc2)c1 | – | 71.2 | > 20000 | 46 | > 20000 | > 20000 | – | – | – | – | – | – | 8600 | > 20 | > 20
11 | CCCNNC(=O)c1cnc(NCc2ccc(Cl)cc2)nc1 | – | 83.2 | – | – | – | 37 | 54 | 61 | 92 | 62 | 88 | 96 | – | – | –
12 | CCCCCCNNC(=O)c1cnc(N2CCN(Cc3cn(C)c4ccccc34)CC2)nc1 | Active | 1.6 | 170 | 14 | 330 | 300 | – | – | – | – | – | – | – | – | –
13 | CCCCCCNNC(=O)c1cnc(N2CCN(Cc3c[nH]c4ccccc34)CC2)nc1 | Active | 2.18 | 170 | 5.9 | 310 | 100 | – | – | – | – | – | – | 41 | > 20 | > 20
14 | CCCNNC(=O)c1cnc(NCc2ccc(CNC(C)=O)cc2)nc1 | Active | 93.1 | 290 | – | 920 | 110 | – | – | – | – | – | – | – | – | –
15 | CCCCCCNNC(=O)c1ccc(CNC(C)=O)cc1 | – | 113.3 | 48000 | 23 | 12000 | > 20000 | – | – | – | – | – | – | – | – | –
16 | CCCNNC(=O)c1ccc(CNC(C)=O)cc1 | – | 81.2 | 1600 | – | 5500 | 1600 | – | – | – | – | – | – | – | – | –
17 | CCCCCCNNC(=O)c1cnc(NCc2ccc(CNC(C)=O)cc2)nc1 | Active | 79.4 | 960 | 19 | 4500 | 8500 | – | – | – | – | – | – | – | – | –
18 | CCCCCNNC(=O)c1ccc(-c2ccc(CNC(C)=O)cc2)cc1 | – | 90.8 | 660 | 350 | 2000 | 1500 | – | – | – | – | – | – | – | – | –
19 | CCCCCCNNC(=O)c1cnc(N2CCN(CCc3c[nH]c4ccccc34)CC2)nc1 | – | 47.1 | 860 | 13 | 1400 | 1000 | – | – | – | – | – | – | – | – | –
20 | CCCNNC(=O)c1cnc(NCc2ccccc2Cl)nc1 | – | 80.7 | – | – | – | 60 | 71 | 55 | 89 | 43 | 87 | 92 | – | – | –
21 | CCCCCCNNC(=O)c1cnc(NCc2cccc3ccccc23)nc1 | Active | 65.7 | 8300 | 63 | > 20000 | > 20000 | – | – | – | – | – | – | – | – | –
